“Also recorded” adds a separate entry of the source.
Tests used:
mature human miR-208a = assay: Duplex melting temperature (Tm) of anti-208a oligonucleotides annealed to complementary RNA; assay type: binding; conditions: for Tm / ΔTm/mod / ΔTm, DNA / ΔTm, parent: RNA complement; for Tm: duplex 1 μM in 0.9% NaCl, in °C (unit assumed); for ΔTm, DNA: versus fully DNA oligo 10931; for ΔTm, parent: versus parent 10101
Protocol: The melting temperature (Tm) of modified 16 nucleotide phosphodiester strands were determined and compared to the Tm of identical 16 nucleotide sequences having natural phosphodiester DNA nucleotides. Specifically, the relative aminoCBBN melting temperature (Tm) compared to the 2′-deoxynucleoside or oxoCBBN nucleoside with the same nucleobase was determined on a per incorporation basis by determining the difference between the melting temperature of the amino-modified 16 nucleotide length phosphodiester strand and that of the identical 16 nucleotide sequence utilizing either the 2′-deoxynucleoside or oxoCBBN phosphodiester DNA nucleotide. Tm differences of substitutions were compared only when they were placed in the same position of the sequence.
For example, the modified anti-208a oligonucleotides were annealed to the complementary sequence, twenty-two nucleotides in length, comprised of RNA nucleosides and a phosphate backbone. The complementary sequence was identical to the endogenous mature miRNA. Thermal denaturation temperatures (Tm) were measured as a maximum of the first derivative plot of melting curvex (A260 vs. Temp). The duplexes were constituted at 1 μM in a 0.9% NaCl buffer. Temperature was ramped from 25° C. to 95° C. at 1° C./min and OD's at 260 nm were read once per 30 seconds. Tm values are averages of at least two measurements.
Duplex melting temperatures for various modifications of a 16 nucleotide sequence, complementary to a nucleotide sequence of mature human miR-208a were measured using a Varian Cary 1E UV-Vis Spectrophotometer. Anti-miRNA 208a oligonucleotide sequences tested included a fully DNA phosphodiester (compound M-10931), four DNA phosphodiester oligonucleotides with 1, 2 or 3 aminoCBBN thymidine residues in place of dT residues (compounds M-1915, M-1916, M-1917, and M-11918), mixed 9 LNA/7 DNA phosphorothioate oligonucleotide (compound M-10101), and 2 mixed LNA/DNA/aminoCBBN phosphorothioate oligonucleotides where LNA thymidines of the parent compound, compound M-10101, were replaced with either 1 or 2 aminoCBBN residues (compounds M-11919 and M-11920). Duplexes were constituted at 1 μM in 0.9% NaCl. Temperature was ramped from 25° C. to 95° C. at 1° C./min and OD's at 260 nm were read once per 30 seconds.

RNA Complement = conditions: 9mer, phosphate backbone, cited from earlier work; for Tm: RNA complement, literature values
miR-208a = assay: Dual-luciferase reporter assay in HeLa cell line stably expressing miR-208a; assay type: cell-based; conditions: HeLa cells expressing miR-208a, 24 hours at 37° C., FIG. 6
Protocol: A HeLa cell line stably expressing miR-208a was generated. Specifically, a miRNA expression vector (Cell BioLabs, Inc.) expressing miR-208a was transfected into HeLa cells. Cells were then selected using a puromycin selection screen and clones which had detectable miR-208a expression as measured by qPCR were isolated (Ct value=˜30).
The cells were plated in a black-walled 96 well plate with 10,000 cells per well. After twenty-four hours following plating, the cells were transfected with a dual-luciferase plasmid containing the miR-208a binding site in the 3′ UTR of the renilla gene and various miR-208a inhibitors (compounds M-11919, M-11920, and M-10101). Compound M-10591 was a non-targeting control. The cells were incubated for 24 hours at 37° C. and then both firefly (as a transfection normalization) and renilla levels were measured by luminescence using the Dual-Luciferase Reporter Assay System (Promega). Data was normalized to cells treated with only the miR-208a dual luciferase plasmid (psi check 208a).

[1] = PS backbone, per modification versus parent 10101

ICs;dTs;dTs;dTs;ITs;ITs;dGs;ICs;dTs;ICs;IGs;dTs;ICs;dTs;ITs;IA [Oligo 10101, reference compound]
Tm (mature human miR-208a; PS backbone, 10101-like): 86.7

bC.bT.bT.bT.bT.bT.dG.bC.bT.bC.dG.bT.bC.bT.bT. dA [Oligo 10924, reference compound]
Tm (mature human miR-208a; phosphate backbone): 89.8
ΔTm/mod (mature human miR-208a; phosphate backbone, per modification versus DNA): 2.8 ° C./modification
ΔTm, DNA (mature human miR-208a; phosphate backbone): 36.7 °C

dC;dT;dT;dT;dT;dT;dG;dC;dT;dC;dG;dT;dC;dT;dT;dA (antisense CTTTTTGCTCGTCTTA; DNA, backbone not given here) [Oligo 10931, reference compound]
Tm (mature human miR-208a; phosphate backbone): 53.1
ΔTm, DNA (mature human miR-208a; phosphate backbone): 0 °C

dG;IT;dG;dA;IT;dA;IT;dG;dC [DNA_9mer_PO_3LNA-T]
Tm (RNA Complement): 50 °C

dG;aIT;dG;dA;aIT;dA;aIT;dG;dC [DNA_9mer_PO_3aminoLNA-T]
Tm (RNA Complement): 47 °C
ΔTm/mod (RNA Complement; versus 3LNA-T parent, literature): -1 ° C./modification

lCs.dTs.dTs.dTs.abTs.abTs.dGs.lCs.dTs.lCs.lGs.dTs. lCs.dTs.lTs.lA [Oligo 11919]
miR208a inhibition activity (dual-luciferase reporter), in words (miR-208a): slightly less activity compared to the other two inhibitors
affinity for the miR-208a RNA (Tm data), in words (mature human miR-208a; PS backbone oligonucleotides): less affinity for the miR-208a RNA than the M-11920 compound
Tm (mature human miR-208a; PS backbone, 10101-like): 80.04
ΔTm/mod (mature human miR-208a; [1]): -6.66 ° C./modification
ΔTm, parent (mature human miR-208a; PS backbone): -6.66

lCs.dTs.dTs.dTs.lTs.lTs.dGs.lCs.dTs.lCs.lGs.dTs.lCs. dTs.abTs.lA [Oligo 11920]
miR208a inhibition activity (dual-luciferase reporter), in words (miR-208a; listed as M-11920): comparable activity as compound M-10101; also recorded: retains all activity of the optimized M-10101 compound
Tm (mature human miR-208a; PS backbone, 10101-like): 85.125
ΔTm/mod (mature human miR-208a; [1]): -0.7875 ° C./modification
ΔTm, parent (mature human miR-208a; PS backbone): -1.575
